From US6528516B1, “Methods for reducing intraocular pressure using A3 adenosine receptor antagonists” (Trustees of the University of Pennsylvania, The Center for …, priority 1998, dated 2003)
Entries after “also recorded” stand apart in the source; their conditions may differ.

What was measured:
[1] = test system: bovine pigmented ciliary epithelial (PE) cells; assay: Cell volume (shrinkage) of PE cells in isoosmotic suspension, Coulter Counter; type: cell-based; settings: for effect of tamoxifen alone on PE cell volume: absence of ATP, 30-min observation
Bovine PE cells = assay: Intracellular Ca2+ of PE cells (fura-2); type: cell-based; settings: for effect of TMX on the Ca2+ response to ATP: 10 μM TMX, 100 μM ATP, 20-sec applications
Protocol: Bovine PE cells grown on coverslips for 2-4 days were loaded with 5 μM fura-2 μAM for 30-45 min at room temperature, and then rinsed and maintained in fura-free solution before beginning data acquisition. The coverslips were mounted on a Nikon Diaphot microscope and visualized with a ×40 oil-immersion fluorescence objective. The emitted fluorescence (510 nm) from 10-12 confluent cells was sampled at 1 Hz following excitation at 340 nm and 380 nm, and the ratio determined with a Delta-Ram system and Felix software (Photon Technology International Inc., Princeton, N.J.). The ratio of light excited at 340 nm to that at 380 nm was converted into Ca^2+ concentration using the method of Grynkiewicz et al. (J. Biol. Chem. 260:3440-3450, 1985). […] Rmin was obtained by bathing cells in a Ca^2+ free isotonic solution of pH 8.0 containing 10 mM EGTA and 5 μM ionomycin. R^max was obtained by bathing the cells in isotonic solution with 1.3 mM Ca^2+ and 5 μM ionomycin. Calibration was performed separately for each experiment. Baseline levels from PE cells in the absence of fura-2 were subtracted from records to control for autofluorescence. Experiments were performed predominantly at room temperature, but several trials were performed at 37° C. using a temperature control unit from Warner Instrument Corp., (Hamden, Conn.). Cells were perfused with an isotonic solution containing (in mM) 105 NaCl, 6HEPES (acid), 4HEPES (Na^+), 1.3 CaCl2, 1 MgCl2, 4 KCl, 5 glucose and 90 mannitol, at an osmolarity of 317 mOsm, pH 7.4.

[2] = test system: swelling-activated Cl− channels of NPE cells; assay: Regulatory volume decrease (RVD) of NPE cells after hypotonic swelling; type: cell-based, human; settings: for effect on cell volume after RVD: TMX added at t=10 min, conclusion of the RVD
[3] = test system: large-conductance Cl− channel, NIH 3T3 fibroblasts transfected with MDR1; settings: NIH 3T3 fibroblasts after MDR1 transfection and growth in colchicine; read-out: EC50 for activation of large-conductance Cl− channel; cited from earlier work
[4] = 6 μM tamoxifen + 10 μM ATP, 5 μM gramicidin D, Cl− present, FIG. 12A
[5] = 6 μM tamoxifen + 10 μM ATP, FIG. 8C
[6] = 10 μM tamoxifen + 100 μM ATP, FIG. 15, first 6 time points
[7] = 10 μM tamoxifen + 100 μM ATP, FIG. 16A
[8] = 100 μM ATP + 10 μM TMX, FIG. 13C
[9] = 100 μM ATP + 10 μM agent, FIG. 13A
[10] = 100 μM ATP + 10 μM agent, FIG. 14A
[11] = ATP + agent (ATP+TMX; ATP+atropine), FIG. 13B
[12] = ATP + tamoxifen, absence of Cl− channel inhibitors, FIG. 12B

CC/C(=C(\c1ccccc1)c1ccc(OCCN(C)C)cc1)c1ccccc1 [tamoxifen]
steady-state cell volume (v∞) ([1]; 3 μM ATP+10 μM TMX, FIG. 8B): 96.7±0.4% | time constant of the shrinkage (τ) ([1]; 3 μM ATP+10 μM TMX, FIG. 8B): 5.8 ± 2.1 min | steady-state cell volume (v∞) [1, 4]: 90.6%±1.1% | time constant of the shrinkage (τ) [1, 4]: 13.2 ± 3.2 min | steady-state cell volume (v∞) [1, 5]: 95.7±0.7% | time constant of the shrinkage (τ) [1, 5]: 6.6 ± 3.2 min | steady-state cell volume (v∞) ([1]; 10 μM ATP + 6 μM TMX, FIG. 10A): 92.8±0.8% | time constant of the shrinkage (τ) ([1]; 10 μM ATP + 6 μM TMX, FIG. 10A): 11.4 ± 0.3 min | steady-state cell volume (v∞) ([1]; 10 μM ATP+10 μM TMX, FIG. 8B): 95.7±0.3% | time constant of the shrinkage (τ) ([1]; 10 μM ATP+10 μM TMX, FIG. 8B): 1.4 ± 0.7 min | effect of agent on shrinkage in the presence of ATP ([1]; 10 μM agent, 100 μM ATP, FIG. 13A): enhanced shrinkage | steady-state cell volume (v∞) [1, 6]: 89.7±6.1% | time constant of the shrinkage (τ) [1, 6]: 22.9 ± 19.0 min | steady-state cell volume (v∞) [1, 7]: 93.9±1.0% | time constant of the shrinkage (τ) [1, 7]: 15.6 ± 5.0 min | steady-state cell volume (v∞) [1, 8]: 89.6±1.9% | time constant of the shrinkage (τ) [1, 8]: 11.3 ± 4.7 min | steady-state cell volume (v∞) [1, 9]: 94.1±0.6% | time constant of the shrinkage (τ) [1, 9]: 6.5 ± 2.3 min | steady-state cell volume (v∞) [1, 10]: 94.8±0.4% | time constant of the shrinkage (τ) [1, 10]: 2.2 ± 10.8 min | effect of tamoxifen on the ATP-triggered shrinkage ([1]; 6-10 μM tamoxifen with ATP): strongly enhanced; also recorded: enhanced the response; also recorded: enhanced the ATP-triggered shrinkage | steady-state cell volume (v∞) [1, 11]: 88.4±0.5% | time constant of the shrinkage (τ) [1, 11]: 7.2 ± 0.9 min | steady-state cell volume (v∞) [1, 12]: 94.2%±0.3% | time constant of the shrinkage (τ) [1, 12]: 4.4 ± 0.8 min | effect of tamoxifen alone on PE cell volume [1]: no consistent response | effect of tamoxifen alone on PE cell volume ([1]; listed as Tamoxifen): no consistent effect | effect of TMX on the Ca2+ response to ATP (Bovine PE cells): does not alter the magnitude of the response | effect of TMX on the Ca2+ response to ATP (Bovine PE cells; listed as TMX): did not affect the size | change (Δ) in intracellular Ca2+ (Bovine PE cells; 10 μM tamoxifen alone): 7 ± 6 nM | effect of tamoxifen alone on Ca2+ (Bovine PE cells; tamoxifen alone): no significant effect | effect on regulatory volume decrease (RVD) ([2]; TMX added at t=5 min): reduced the magnitude of the RVD | effect on regulatory volume decrease (RVD) ([2]; TMX added at t=5 min, listed as TMX): partially inhibited the steady-state response | effect on cell volume after RVD [2]: did not affect cell volume | effect on cell volume after RVD ([2]; listed as TMX): no effect on cell volume | effect on regulatory volume decrease (RVD) ([2]; TMX added at the time of hypotonic stress, 5 μM gramicidin D): completely abolished the RVD | effect on regulatory volume decrease (RVD) ([2]; TMX added at the time of hypotonic stress, 5 μM gramicidin D, listed as TMX): abolished the RVD | EC50 [3]: ~15 µM
